Test results as given in patent publication US11590117B2, “Treatment of a hematologic malignancy with 2-(4-chlorophenyl)-n-((2-(2,6-dioxopiperidin-3-yl)-1-oxoisoindolin-5-yl)methyl)-2,2-difluoroacetamide” (priority 2016, dated 2023).
Where two headings read alike, the source gives them in different places.

Key:
Experiment in all cases: CellTiter-Glo (CTG) cell proliferation assay, 72 hours
Type in all cases: cell-based, human
HL-60 = system: HL-60
Method: (§1) Preparation of Solutions of Test Article: Compounds were plated into black 384-well plates (Corning Inc.) to a final DMSO volume of 0.1% assuming a maximal volume of 50 μL. A 10-point dose response starting at 10 μM with a 1:3 dilution was printed in duplicate by acoustic dispense using the EDC ATS-100 platform.
(§2) Cell Proliferation Assays: The effect of Compound 1 on the proliferation/viability of the hematological cell lines (Table 1 Table, Table 2 and Table 3), THLE-2, or PBMCs was assessed after 72 hours incubation using CTG (Promega), according to manufacturer's instructions. Hematological cell lines were dispensed into compound plates by a Multidrop™ Combi Reagent Dispenser (Thermo Scientific, Waltham, Mass.) at a concentration of 0.1 to 0.3×10^6 cells per mL in a 50 μL total volume. THLE-2 cells were seeded out at 1000 cells per well in 50 μL volume and incubated for 72 hours. At 72 hours, 25 μL per well of CTG was dispensed by a Multidrop™ Combi Reagent Dispenser and adenosine triphosphate (ATP) release by viable cells was measured as relative luminescence units after 30 minutes using the Envision platform.
(§3) Proliferation was assessed using the CellTitre-Glo® assay. Results for cultures incubated with Compound 1 were normalized to results for control cultures for each cell line. The IC50 for inhibition of cell growth by Compound 1 was determined for each cell line using ActivityBase software.
(§4) Cultures of 11 different AML cell lines were incubated 72 hours with Compound 1 at concentrations of 0.5 nM to 10 μM. Proliferation was assessed using the CellTitre-Glo® assay. Results for cultures incubated with Compound 1 were normalized to results for control cultures for each cell line. Inhibition of cell growth was also determined in THLE-2 cells at Compound 1 concentrations of 0.1 nM to 100 μM and in PBMCs at Compound 1 concentrations of 0.5 nM to […]. The Compound 1 therapeutic window was calculated using area under the curve (AUC; Activity Area [Barretina et al, Nature (2012) 483603-607] measurements (in arbitrary units) as determined using GraphPad Prism software for plots of cell proliferation vs concentration and dividing the AUC for the immortalized (but nontumorigenic) human THLE-2 hepatocyte cell line or PBMCs by the AUC for the AML cell line.

HNT-34 = settings: for IC50: Homo sapiens
Method: as §1, §2, §3, §4

KG-1a = system: KG-1a
Method: as §1, §2, §3, §4

KG-1 = system: KG-1
Method: as §1, §2, §3, §4

Kasumi-1 = system: Kasumi-1
Method: as §1, §2, §3, §4

MOLM-13 = system: MOLM-13
Method: as §1, §2, §3, §4

MV-4-11 = system: MV-4-11
Method: as §1, §2, §3, §4

NB-4 = system: NB-4
Method: as §1, §2, §3, §4

OCI-AML3 = settings: for IC50: liquid culture
Method: as §1, §2, §3, §4

U-937 = system: U-937
Method: as §1, §2, §3, §4

[1] = HL-60, AUC PBMCs divided by AUC AML cell line
[2] = HL-60, AUC THLE-2 divided by AUC AML cell line
[3] = HNT-34, AUC PBMCs divided by AUC AML cell line
[4] = HNT-34, AUC THLE-2 divided by AUC AML cell line
[5] = AUC PBMCs divided by AUC AML cell line
[6] = AUC THLE-2 divided by AUC AML cell line
[7] = KG-1, AUC PBMCs divided by AUC AML cell line
[8] = KG-1, AUC THLE-2 divided by AUC AML cell line
[9] = Kasumi-1, AUC PBMCs divided by AUC AML cell line
[10] = Kasumi-1, AUC THLE-2 divided by AUC AML cell line
[11] = MOLM-13, AUC PBMCs divided by AUC AML cell line
[12] = MOLM-13, AUC THLE-2 divided by AUC AML cell line
[13] = MV-4-11, AUC PBMCs divided by AUC AML cell line
[14] = MV-4-11, AUC THLE-2 divided by AUC AML cell line
[15] = NB-4, AUC PBMCs divided by AUC AML cell line
[16] = NB-4, AUC THLE-2 divided by AUC AML cell line
[17] = OCI-AML3, AUC PBMCs divided by AUC AML cell line
[18] = OCI-AML3, AUC THLE-2 divided by AUC AML cell line
[19] = U-937, AUC PBMCs divided by AUC AML cell line
[20] = U-937, AUC THLE-2 divided by AUC AML cell line

SMILES: O=C1CCC(N2Cc3cc(CNC(=O)C(F)(F)c4ccc(Cl)cc4)ccc3C2=O)C(=O)N1 (centres unmarked) [Compound 1, 2-(4-chlorophenyl)-N-((2-(2,6-dioxopiperidin-3-yl)-1-oxoisoindolin-5-yl)methyl)-2,2-difluoroacetamide]
- Therapeutic Window Method 1 As Compared with PBMCs (HL-60; [1]): 11
- Therapeutic Window Method 2 As Compared with PBMCs (HL-60; [1]): 6.1
- Therapeutic Window Method 1 As Compared with THLE-2 Cells (HL-60; [2]): 17
- Therapeutic Window Method 2 As Compared with THLE-2 Cells (HL-60; [2]): 23.2
- AUC (HL-60; HL-60, Activity Area of proliferation vs concentration, 72 hours, 0.5 nM to 10 μM): 23.7 arbitrary units
- IC50 (HL-60; Homo sapiens, HL-60, 72 h, read-out: Proliferation IC50 (mean ± SD)): 20 ± 10 nM
- Therapeutic Window Method 1 As Compared with PBMCs (HNT-34; [3]): 36
- Therapeutic Window Method 2 As Compared with PBMCs (HNT-34; [3]): 21
- Therapeutic Window Method 1 As Compared with THLE-2 Cells (HNT-34; [4]): 57
- Therapeutic Window Method 2 As Compared with THLE-2 Cells (HNT-34; [4]): 79.5
- AUC (HNT-34; HNT-34, Activity Area of proliferation vs concentration, 72 hours, 0.5 nM to 10 μM): 6.9 arbitrary units
- IC50 (HNT-34; HNT-34, 72 h, read-out: Proliferation IC50 (mean ± SD)): 3 ± 1 nM
- IC50 (HNT-34; HNT-34 as sensitive positive control cell line in PBMC comparison, 72 hours, read-out: CTG IC50): 2 nM
- Therapeutic Window Method 1 As Compared with PBMCs (KG-1a; [5]): 2.6
- Therapeutic Window Method 2 As Compared with PBMCs (KG-1a; [5]): 1.5
- Therapeutic Window Method 1 As Compared with THLE-2 Cells (KG-1a; [6]): 4.1
- Therapeutic Window Method 2 As Compared with THLE-2 Cells (KG-1a; [6]): 5.7
- AUC (KG-1a; Activity Area of proliferation vs concentration, 72 hours, 0.5 nM to 10 μM): 96.9 arbitrary units
- IC50 (KG-1a; Homo sapiens, 72 h, read-out: Proliferation IC50 (mean ± SD)): 21 ± 10 nM
- IC50 (KG-1; Homo sapiens, KG-1, 72 h, read-out: Proliferation IC50 (mean ± SD)): 15 ± 6 nM
- Therapeutic Window Method 1 As Compared with PBMCs (KG-1; [7]): 3.8
- Therapeutic Window Method 2 As Compared with PBMCs (KG-1; [7]): 2.2
- Therapeutic Window Method 1 As Compared with THLE-2 Cells (KG-1; [8]): 6.0
- Therapeutic Window Method 2 As Compared with THLE-2 Cells (KG-1; [8]): 8.3
- AUC (KG-1; KG-1, Activity Area of proliferation vs concentration, 72 hours, 0.5 nM to 10 μM): 65.8 arbitrary units
- IC50 (Kasumi-1; Homo sapiens, Kasumi 1, 72 h, read-out: Proliferation IC50 (mean ± SD)): 21 ± 13 nM
- Therapeutic Window Method 1 As Compared with PBMCs (Kasumi-1; [9]): 6.6
- Therapeutic Window Method 2 As Compared with PBMCs (Kasumi-1; [9]): 3.8
- Therapeutic Window Method 1 As Compared with THLE-2 Cells (Kasumi-1; [10]): 10
- Therapeutic Window Method 2 As Compared with THLE-2 Cells (Kasumi-1; [10]): 14.5
- AUC (Kasumi-1; Kasumi-1, Activity Area of proliferation vs concentration, 72 hours, 0.5 nM to 10 μM): 37.9 arbitrary units
- IC50 (MOLM-13; Homo sapiens, MOLM-13, 72 h, read-out: Proliferation IC50 (mean ± SD)): 75 ± 33 nM
- Therapeutic Window Method 1 As Compared with PBMCs (MOLM-13; [11]): 6.3
- Therapeutic Window Method 2 As Compared with PBMCs (MOLM-13; [11]): 3.7
- Therapeutic Window Method 1 As Compared with THLE-2 Cells (MOLM-13; [12]): 9.9
- Therapeutic Window Method 2 As Compared with THLE-2 Cells (MOLM-13; [12]): 13.9
- AUC (MOLM-13; MOLM-13, Activity Area of proliferation vs concentration, 72 hours, 0.5 nM to 10 μM): 39.6 arbitrary units
- IC50 (MV-4-11; Homo sapiens, MV4-11, 72 h, read-out: Proliferation IC50 (mean ± SD)): 29 ± 10 nM
- Therapeutic Window Method 1 As Compared with PBMCs (MV-4-11; [13]): 12
- Therapeutic Window Method 2 As Compared with PBMCs (MV-4-11; [13]): 7.1
- Therapeutic Window Method 1 As Compared with THLE-2 Cells (MV-4-11; [14]): 19
- Therapeutic Window Method 2 As Compared with THLE-2 Cells (MV-4-11; [14]): 26.8
- AUC (MV-4-11; MV-4-11, Activity Area of proliferation vs concentration, 72 hours, 0.5 nM to 10 μM): 20.5 arbitrary units
- IC50 (NB-4; Homo sapiens, NB-4, 72 h, read-out: Proliferation IC50 (mean ± SD)): 17 ± 5 nM
- Therapeutic Window Method 1 As Compared with PBMCs (NB-4; [15]): 17
- Therapeutic Window Method 2 As Compared with PBMCs (NB-4; [15]): 10.1
- Therapeutic Window Method 1 As Compared with THLE-2 Cells (NB-4; [16]): 27
- Therapeutic Window Method 2 As Compared with THLE-2 Cells (NB-4; [16]): 38.1
- AUC (NB-4; NB-4, Activity Area of proliferation vs concentration, 72 hours, 0.5 nM to 10 μM): 14.4 arbitrary units
- IC50 (OCI-AML3; Homo sapiens, OCI-AML-3, 72 h, read-out: Proliferation IC50 (mean ± SD), OCI-AML3, 72 hours): 3000 nM
- Therapeutic Window Method 1 As Compared with PBMCs (OCI-AML3; [17]): 0.45
- Therapeutic Window Method 2 As Compared with PBMCs (OCI-AML3; [17]): 0.3
- Therapeutic Window Method 1 As Compared with THLE-2 Cells (OCI-AML3; [18]): 0.70
- Therapeutic Window Method 2 As Compared with THLE-2 Cells (OCI-AML3; [18]): 1.0
- AUC (OCI-AML3; OCI-AML3, Activity Area of proliferation vs concentration, 72 hours, 0.5 nM to 10 μM): 563.0 arbitrary units
- IC50 (OCI-AML3; read-out: Proliferation IC50 (mean ± SD), OCI-AML3, 72 hours): 3400 ± 3330 nM
- IC50 (U-937; Homo sapiens, U-937, 72 h, read-out: Proliferation IC50 (mean ± SD)): 74 ± 25 nM
- Therapeutic Window Method 1 As Compared with PBMCs (U-937; [19]): 6.3
- Therapeutic Window Method 2 As Compared with PBMCs (U-937; [19]): 3.6
- Therapeutic Window Method 1 As Compared with THLE-2 Cells (U-937; [20]): 9.8
- Therapeutic Window Method 2 As Compared with THLE-2 Cells (U-937; [20]): 13.7
- AUC (U-937; U-937, Activity Area of proliferation vs concentration, 72 hours, 0.5 nM to 10 μM): 40.0 arbitrary units
